Read-outs that look alike come from different tables or passages of the source.
Assays:
[1] = biological target: TRKA kinase (Homo sapiens, UniProt P04629); assay: Biochemical kinase analysis (HTRF), TRKA; conditions: 23° C., read-out: Kinase IC50 (nM) TRK A
Procedure: (§1) Inhibition of TRKA, TRKB, TRKC kinases can be measured by HTRF ([…]) method. The reaction was performed in a 384-well plate at 23° C. with a volume of 20 μL. TRKA TRKB or TRKC kinase were mixed with pre-formulated and diluted compounds of different concentrations for ten minutes in duplicate for each concentration, wherein 11 concentrations made with a 3-fold gradient dilution from the starting concentration of 300 nM were made and the final concentration of DMSO was 2%. The corresponding substrate and ATP were added thereto, and reacted at room temperature for 20 minutes (both a negative and a positive control were set: negative control is blank control, positive control is Entrectinib). After the reaction, detection reagent was added thereto (reagent in HTRF Kinase TK kit), and after incubation at room temperature for 30 minutes, detection was carried out by PerkinElmer Envision microplate reader for determining enzyme activity in the presence of the compounds of the present disclosure at various concentrations, and the inhibitory activity of different concentrations of compounds against enzyme activity was calculated. After that, in accordance with four-factors function and Graphpad 5.0 software, inhibitory activity on enzyme activity under different concentrations of compounds was fitted and IC50 values were calculated.

[2] = biological target: TRKB kinase (Homo sapiens, UniProt Q16620); assay: Biochemical kinase analysis (HTRF), TRKB; conditions: 23° C., read-out: Kinase IC50 (nM) TRK B
Procedure: as §1

[3] = biological target: TRKC kinase (Homo sapiens, UniProt Q16288); assay: Biochemical kinase analysis (HTRF), TRKC; conditions: 23° C., read-out: Kinase IC50 (nM) TRK C
Procedure: as §1

[4] = test system: KM12 cell line; assay: KM12 cell proliferation analysis (CellTiter-Glo); type: cell-based; conditions: Homo sapiens, 72 h
Procedure: The CGT method was used to detect the in vitro anti-proliferative activity of the compounds of the present disclosure on tumor cells cultured in vitro. The KM12 cell line was maintained in RPMI-1640 medium containing 10% fetal bovine serum and antibiotics, the cells in the logarithmic growth phase were harvested and planted in a 96-well plate. The plate was incubated in an incubator at 37° C., containing 5% carbon dioxide gas overnight. After the test compounds were dissolved in DMSO, a 3-fold concentration gradient dilution with 9 compound concentrations was made. Pre-prepared compounds of different concentrations were transferred to the cell plate in triplicate for each concentration, and continue culturing for 72 h. The final concentration of DMSO in the system was 0.1%, and the initial concentration of the test compound was 300 nM.
CellTiter-Glo reagent was added to the cell plate, and incubated at room temperature for 30 minutes to stabilize the optical signal. Detection was carried out by PerkinElmer Envision microplate reader for determining the inhibitory activity of the compound of the present disclosure at various concentrations on cell proliferation. The inhibitory activity of compounds at different concentrations on cell proliferation was fitted according to Graphpad 5.0 software, and IC50 values were calculated.

[5] = Pharmacokinetic experiment in rats; type: in vivo, Sprague-Dawley rats; set-up: Cl_pred (L/kg): unit not given here; conditions: rat; for AUC(0-inf): read-out: AUCINF_pred; for MRT inf: read-out: MRTINF_pred
Procedure: 6 male Sprague-Dawley rats (7-8 weeks old, and weighing approximately 210 g) were divided into 2 groups with 3 rats in each group. The rats were intravenously or orally administered a single dose of compounds (3 mg/kg intravenously, 10 mg/kg orally) to compare pharmacokinetic differences.
The rats were feeded on standard food and water. Fasting was started 16 hours before the test. The drug was dissolved in PEG400 and dimethyl sulfoxide. The blood samples were collected from eyelids at the time points of 0.083 hour, 0.25 hour, 0.5 hour, 1 hour, 2 hours, 4 hours, 6 hours, 8 hours, 12 hours, and 24 hours after administration.
Rats were briefly anesthetized after inhalation of diethyl ether and 300 μL of blood sample was collected from the eyelids into test tubes. There was 30 μL of 1% heparin salt solution in the test tube. Tubes were dried at 60° C. overnight before use. After the blood sample was collected at the last time point, the rats were sacrificed after ether anesthesia.
Immediately after the collection of the blood sample, the test tube was gently inverted at least 5 times to ensure sufficient mixing and then placed on ice. The blood sample was centrifuged at 5000 rpm at 4° C. for 5 minutes to separate the plasma from the red blood cells. 100 μL of plasma was aspirated into a clean plastic centrifuge tube with a pipette, marking with the name of the compound and time point. Plasma was stored at −80° C. prior to analysis. The concentration of the compound of the present disclosure in plasma was determined by LC-MS/MS. The pharmacokinetic parameters were calculated based on the blood concentration of the drug for each animal at different time points.

[6] = male, Sprague-Dawley, plasma, IV 3 mg/kg
[7] = male, Sprague-Dawley, plasma, PO 10 mg/kg

Sequence of TRKC kinase (Q16288 32-839): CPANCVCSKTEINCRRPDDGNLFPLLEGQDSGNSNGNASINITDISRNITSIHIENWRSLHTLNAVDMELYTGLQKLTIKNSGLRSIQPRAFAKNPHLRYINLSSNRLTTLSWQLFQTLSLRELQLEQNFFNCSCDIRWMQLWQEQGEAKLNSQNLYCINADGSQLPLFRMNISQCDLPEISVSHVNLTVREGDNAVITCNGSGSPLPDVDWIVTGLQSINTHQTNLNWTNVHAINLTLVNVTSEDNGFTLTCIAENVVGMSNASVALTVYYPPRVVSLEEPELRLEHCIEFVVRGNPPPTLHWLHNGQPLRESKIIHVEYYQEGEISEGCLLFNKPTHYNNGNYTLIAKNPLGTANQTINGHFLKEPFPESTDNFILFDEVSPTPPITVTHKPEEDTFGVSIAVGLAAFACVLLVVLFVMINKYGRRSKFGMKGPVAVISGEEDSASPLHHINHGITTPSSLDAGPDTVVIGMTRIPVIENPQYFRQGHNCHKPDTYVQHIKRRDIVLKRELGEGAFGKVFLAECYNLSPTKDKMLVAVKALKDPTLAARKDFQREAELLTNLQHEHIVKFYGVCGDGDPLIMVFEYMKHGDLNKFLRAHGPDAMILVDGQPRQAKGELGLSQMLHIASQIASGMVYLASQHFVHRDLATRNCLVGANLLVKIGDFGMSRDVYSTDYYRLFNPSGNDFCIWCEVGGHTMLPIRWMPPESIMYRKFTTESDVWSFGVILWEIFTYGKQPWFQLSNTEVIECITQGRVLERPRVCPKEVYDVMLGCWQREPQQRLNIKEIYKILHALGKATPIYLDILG
Sequence of TRKA kinase (P04629 33-796): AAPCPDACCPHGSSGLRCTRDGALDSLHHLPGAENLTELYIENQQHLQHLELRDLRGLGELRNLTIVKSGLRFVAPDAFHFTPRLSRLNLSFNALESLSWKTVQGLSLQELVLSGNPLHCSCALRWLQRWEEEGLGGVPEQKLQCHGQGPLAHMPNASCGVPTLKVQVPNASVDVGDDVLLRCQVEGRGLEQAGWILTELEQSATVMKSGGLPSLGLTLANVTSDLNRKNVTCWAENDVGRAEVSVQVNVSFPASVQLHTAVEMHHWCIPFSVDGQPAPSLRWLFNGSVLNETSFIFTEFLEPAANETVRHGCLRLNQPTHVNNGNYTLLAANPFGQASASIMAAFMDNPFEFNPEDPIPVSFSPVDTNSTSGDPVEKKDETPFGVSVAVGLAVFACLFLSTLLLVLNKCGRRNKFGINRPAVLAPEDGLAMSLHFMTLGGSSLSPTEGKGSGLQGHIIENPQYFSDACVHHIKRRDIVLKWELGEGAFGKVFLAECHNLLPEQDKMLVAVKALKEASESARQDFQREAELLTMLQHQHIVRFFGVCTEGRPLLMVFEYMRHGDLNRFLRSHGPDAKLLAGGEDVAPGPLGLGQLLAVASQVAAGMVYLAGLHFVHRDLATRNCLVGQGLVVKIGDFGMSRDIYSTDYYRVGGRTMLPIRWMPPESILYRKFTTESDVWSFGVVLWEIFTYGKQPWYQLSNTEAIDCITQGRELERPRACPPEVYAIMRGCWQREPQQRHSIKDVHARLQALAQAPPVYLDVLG
Sequence of TRKB kinase (Q16620 32-822): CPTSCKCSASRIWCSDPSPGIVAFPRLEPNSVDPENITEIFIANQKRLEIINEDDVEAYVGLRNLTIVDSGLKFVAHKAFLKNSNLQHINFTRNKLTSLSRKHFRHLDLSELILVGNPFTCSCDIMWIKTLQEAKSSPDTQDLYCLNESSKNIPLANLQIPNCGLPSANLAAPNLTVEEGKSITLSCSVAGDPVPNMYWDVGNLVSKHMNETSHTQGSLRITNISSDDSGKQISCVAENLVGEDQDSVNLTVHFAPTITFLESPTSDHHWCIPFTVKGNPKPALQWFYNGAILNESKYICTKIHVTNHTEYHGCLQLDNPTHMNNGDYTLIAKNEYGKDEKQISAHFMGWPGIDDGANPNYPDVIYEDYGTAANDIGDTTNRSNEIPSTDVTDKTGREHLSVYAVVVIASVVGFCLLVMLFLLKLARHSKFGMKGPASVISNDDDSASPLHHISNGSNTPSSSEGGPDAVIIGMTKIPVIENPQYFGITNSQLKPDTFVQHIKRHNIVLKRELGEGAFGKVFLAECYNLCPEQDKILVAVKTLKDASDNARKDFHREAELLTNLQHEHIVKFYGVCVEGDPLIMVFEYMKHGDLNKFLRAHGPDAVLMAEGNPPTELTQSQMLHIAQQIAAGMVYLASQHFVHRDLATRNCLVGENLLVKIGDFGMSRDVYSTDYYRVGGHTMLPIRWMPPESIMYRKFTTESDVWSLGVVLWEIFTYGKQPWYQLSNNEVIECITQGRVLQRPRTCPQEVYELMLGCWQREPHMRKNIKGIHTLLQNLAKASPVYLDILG

C[C@H]1CC(=O)Nc2cnn3ccc(nc23)N[C@H](C)c2cc(F)ccc2O1 [Compound T-2-A, (7S,13R)-11-fluoro-7,13-dimethyl-6,7,13,14-tetrahydro-1,15-ethenopyrazolo[4,3-f][1,4,8,10]benzoxatriazacyclotiidecin-5(6H)-one]
IC50 [1]: 0.19 nM
IC50 [2]: 0.1 nM
IC50 [3]: 0.06 nM
IC50 [4]: 1.6 nM
AUC(0-t) [5, 6]: 6560 ng·h/mL
Cmax [5, 6]: 2100 ng/mL
Tmax [5, 6]: 0.08 h
half-life [5, 6]: 335 min
AUC(0-inf) [5, 6]: 6620 ng·h/mL
MRT inf [5, 6]: 3.44 h
AUC(0-t) [5, 7]: 11500 ng·h/mL
Cmax [5, 7]: 994 ng/mL
Tmax [5, 7]: 2.17 h
half-life [5, 7]: 290 min
bioavailability ([5]; male, Sprague-Dawley, plasma, PO 10 mg/kg vs IV 3 mg/kg): 52.7%
AUC(0-inf) [5, 7]: 12900 ng·h/mL
MRT inf [5, 7]: 7.37 h
Cl_pred (L/kg) ([5]; IV 3 mg/kg): 0.45
Vz_pred ([5]; IV 3 mg/kg): 2.67 L/kg
Cl_pred (L/kg) ([5]; PO 10 mg/kg): 0.83
Vz_pred ([5]; PO 10 mg/kg): 6.70 L/kg

Source: patent publication US11358973B2, “Di(hetero)aryl macrocyclic compound for inhibiting protein kinase activity” (Shenzhen TargetRx, Inc., priority 2018, dated 2022)
